Experimental data published in US20150368248A1, “2-SUBSTITUTED-6-BIARYLMETHYLAMINO-9-CYCLOPENTYL-9H-PURINE DERIVATIVES, USE THEREOF AS MEDICAMENTS, AND PHARMACEUTICAL COMPOSITIONS” (UNIVERZITA PALACKEHO V OLOMOUCI, priority 2013, published 2015).

Assays:
[1] = system: HepG2; assay: MTT cytotoxicity assay (Example 30); format: cell-based; settings: Homo sapiens, HepG2, 72 h; MTT, three days after drug addition; read-out: Inhibitory concentration IC50, HepG2
Source text: Cytotoxicity of the compounds is the major property determining their anticancer effect in vivo. One of the parameters used, as the basis for cytotoxicity assays, is the metabolic activity of viable cells. For example, a microtiter assay, which uses (3-(4,5-Dimethylthiazol-2-yl)-2,5-diphenyltetrazolium bromide (MTT), is widely used to quantitate cell proliferation and cytotoxicity. For instance, this assay is used in drug screening programs and in chemosensitivity testing. Because only metabolically active living cells reduce MTT to correspond purple formazan dye, these assays detect viable cells exclusively. The quantity of reduced MTT corresponds to the number of vital cells in the culture.
(§1) We have been using the following cell lines: HUH-7 and PLC/PRF/5 cell lines were maintained in DMEM supplemented with 10% fetal bovine serum, penicillin (100 U/ml) and streptomycin (100 μg/ml). Unique HCC-1.2 (3p) and HCC-1.1 (3sp) cell lines (Zilj et al., 2009, Future Oncol, 5(8):1169-79) and Hep3B cells were cultivated in RPMI supplemented with 10% fetal bovine serum, penicillin (100 U/ml) and streptomycin (100 μg/ml). HepG2 cell line was maintained in EMEM supplemented with 10% fetal bovine serum, sodium pyruvate (0.11 g/1), penicillin (100 U/ml) and streptomycin (100 μg/ml). All cell lines were cultivated at 37° C. in 5% CO2. For cytotoxicity assays, 3000 cells (10000 cells in case of HepG2 cell line) were seeded into each well of 96 well plate and the next day tested compounds were added at various concentrations in triplicates. Three days after drug addition MTT stock solution (5 mg/ml) was added into each well and incubated for 4 h. After this incubation period, produced formazan was dissolved by DMSO and final absorbance was measured at 570 nm with Synergy H4 Hybrid Multi-Mode Microplate Reader.

[2] = system: HUH-7; assay: MTT cytotoxicity assay (Example 30); format: cell-based; settings: Homo sapiens, Huh-7, 72 h; MTT, three days after drug addition; read-out: Inhibitory concentration IC50, HUH-7
Procedure: (§2) Cytotoxicity of the compounds is the major property determining their anticancer effect in vivo. One of the parameters used, as the basis for cytotoxicity assays, is the metabolic activity of viable cells.
as §1, with “Unique HCC-1.2 (3p) and HCC-1.1 (3sp) cell lines (Zilj et al., 2009, Future Oncol, 5(8):1169-79) and Hep3B cells were cultivated in RPMI supplemented with 10% fetal bovine serum, penicillin (100 U/ml) and streptomycin (100 μg/ml).” left out

[3] = system: HCC-1.1 (3sp); assay: MTT cytotoxicity assay (Example 30); format: cell-based; settings: Homo sapiens, 72 h; MTT, three days after drug addition; read-out: Inhibitory concentration IC50, 3sp
Procedure: as §2
as §1, with “Unique HCC-1.2 (3p) and HCC-1.1 (3sp) cell lines (Zilj et al., 2009, Future Oncol, 5(8):1169-79) and Hep3B cells were cultivated in RPMI supplemented with 10% fetal bovine serum, penicillin (100 U/ml) and streptomycin (100 μg/ml).” left out

[4] = system: HCC-1.2 (3p); assay: MTT cytotoxicity assay (Example 30); format: cell-based; settings: Homo sapiens, HCC-1.2, 72 h; MTT, three days after drug addition; read-out: Inhibitory concentration IC50, 3p
Procedure: as §2
as §1, with “Unique HCC-1.2 (3p) and HCC-1.1 (3sp) cell lines (Zilj et al., 2009, Future Oncol, 5(8):1169-79) and Hep3B cells were cultivated in RPMI supplemented with 10% fetal bovine serum, penicillin (100 U/ml) and streptomycin (100 μg/ml).” left out

[5] = system: PLC/PRF/5; assay: MTT cytotoxicity assay (Example 30); format: cell-based; settings: Homo sapiens, PLC-PRF-5, 72 h; MTT, three days after drug addition; read-out: Inhibitory concentration IC50, PLC/PRF/5
Procedure: as §2
as §1, with “Unique HCC-1.2 (3p) and HCC-1.1 (3sp) cell lines (Zilj et al., 2009, Future Oncol, 5(8):1169-79) and Hep3B cells were cultivated in RPMI supplemented with 10% fetal bovine serum, penicillin (100 U/ml) and streptomycin (100 μg/ml).” left out

[6] = system: Hep3B; assay: MTT cytotoxicity assay (Example 30); format: cell-based, human; settings: Homo sapiens, Hep3B, 72 h; MTT, three days after drug addition; read-out: Inhibitory concentration IC50, Hep3B
Procedure: as §2
as §1, with “Unique HCC-1.2 (3p) and HCC-1.1 (3sp) cell lines (Zilj et al., 2009, Future Oncol, 5(8):1169-79) and Hep3B cells were cultivated in RPMI supplemented with 10% fetal bovine serum, penicillin (100 U/ml) and streptomycin (100 μg/ml).” left out

[7] = system: caspase-3/7 activity in PLC/PRF/5 cell line; assay: One-step cellular caspase-3/7 activity assay; format: cell-based, human; settings: 24 hours incubation, relative to 0 nM = 1.00
Procedure: (§3) Measurements of proapoptotic properties of new compounds were based on quantification of enzymatic activities of caspases, concretely caspases-3/7. Activity of cellular caspase-3/7 was measured according to Carrasco et al., 2003, BioTechniques, 34(5): 1064-67. Briefly, Hep3B and PLC/PRF/5 cells were incubated in the densities of 10000 cells/well in a 96-well plate overnight. Next day, the compounds in appropriate concentrations were added and cells were incubated for the 24 hours. After incubation, 3× caspase-3/7 assay buffer (150 mM HEPES pH 7.4, 450 mM NaCl, 150 mM KCl, 30 mM MgCl2, 1.2 mM EGTA, 1.5% Nonidet P40, 0.3% CHAPS, 30% sucrose, 30 mM DTT, 3 mM PMSF) with 150 μM Ac-DEVD-AMC as a substrate (Sigma-Aldrich) was added to the wells and plates were incubated at […]. The caspase-3/7 activity was measured after 6 hours using Fluoroskan Ascent microplate reader (Labsystems) at 346 nm/442 nm (excitation/emission).

[8] = system: caspase-3/7 activity in Hep3B cell line; assay: One-step cellular caspase-3/7 activity assay; format: cell-based, human; settings: 24 hours, 0 nM = 1.00
Procedure: as §3

[9] = system: p53-regulated transcription in Arn8 cells; assay: p53-dependent transcriptional activity, β-galactosidase reporter; format: cell-based; settings: 24 h incubation
Procedure: Stronger anticancer activity of the compounds is enhanced by its positive impact on stability and activity of the tumour suppressor p53. To measure p53-dependent transcriptional activity, β-galactosidase activity was quantified in the melanoma cell line Arn8, which had been established using stable transfection of cells with a p53-responsive reporter construct pRGCAfoslacZ (Frebung et al., Cancer Res., 52, 1992-6976). Briefly, after 24 h incubation with the inhibitors the Arn8 cells were permeabilized with 0.3% Triton X-100 for 15 min and then 4-methylumbelliferon-β-D-galactopyranoside was added as a substrate to the final concentration of 80 μM. After 1 h the fluorescence of product 4-methylumbelliferon was measured at 355/460 nm (ex/em) with a Fluoroskan Ascent microplate reader (Labsystems). Data in Tab. 8 present that series of 2-substituted-6-biarylmethylamino-9-cyclopentyl-9H-purine derivatives show a dose-dependent activatory effect on p53-regulated transcription, with the maximum impact observed between 100 and 500 nM concentrations for most of prepared compounds (Tab. 8).

[10] = biological target: T1, CDK7/cyclin H/MAT1 (Homo sapiens, UniProt P50613); assay: Kinase inhibition assay, recombinant kinase, [γ-33P]ATP; format: biochemical; settings: read-out: Residual kinase activity, CDK7
T1 construct: purchased ProQinase GmbH (Freiburg, Germany)
Procedure: (§4) CDK2/Cyclin E kinase was produced in Sf9 insect cells via baculoviral infection and purified on a NiNTA column (Qiagen). CDK5/p35, CDK7Cyclin H/MAT1 and CDK9/Cyclin T1 was purchased from ProQinase GmbH. The kinase reactions were assayed with 1 mg/mL histone H1 (for CDK2 and CDK5) or (YSPTSPS)2KK peptide (for CDK7 and CDK9) in the presence of 15/0.15/1.5/1.5 μM ATP (for CDK2/CDK5/CDK7CDK9), 0.05 μCi [γ-^33P]ATP and of the test compound in a final volume of 10 μL, all in a reaction buffer (60 mM HEPES-NaOH, pH 7.5, 3 mM MgCl2, 3 mM MnCl2, 3 μM Na-orthovanadate, 1.2 mM DTT, 2.5 μg/50 μl PEG20,000). The reactions were stopped by adding 5 μL of 3% aq H3PO4. Aliquots were spotted onto P-81 phosphocellulose (Whatman), washed 3× with 0.5% aq H3PO4 and finally air-dried.
(§5) CDK1/cyclin B and CDK2/cyclin E kinases were produced in Sf9 insect cells via baculoviral infection, while CDK5/p35, CDK7/cyclin H/MAT1, and CDK9/cyclin T1 were purchased from ProQinase (Freiburg, Germany) and assayed as described previously (35). The kinase reactions were assayed with 1 mg/ml histone H1 (for CDK2 and CDK5) or (YSPTSPS)2KK peptide (for CDK7 and CDK9) in the presence of 15/0.15/1.5/1.5 […] ATP (for CDK2/CDK5/CDK7CDK9), […] [γ-^33P]ATP and of the test compound in a final volume of […]. The reaction buffer contained 60 mM HEPES-NaOH, pH 7.5, 3 mM MgCl2, 3 mM MnCl2, 3 mM Na-orthovanadate, 1.2 mM DTT, 2.5 mg/50 ml PEG20.000. The reactions were stopped by adding […] of 3% H3PO4. Aliquots were spotted onto P-81 phosphocellulose (Whatman, GE Healthcare Biosciences, Pittsburgh, USA), washed 3 times with 0.5% H3PO4 and finally air-dried. Kinase inhibition was quantified using a FLA-7000 digital image analyzer (Fujifilm, Tokyo, Japan).

[11] = biological target: T2, CDK9/Cyclin T1 (Homo sapiens, UniProt P50750); assay: as above; format: biochemical; settings: read-out: Residual kinase activity, CDK9
T2 construct: purchased ProQinase GmbH (Freiburg, Germany)
Procedure: as §4, §5

[12] = biological target: T3, CDK5/p35 (Homo sapiens, UniProt Q00535); assay: as above; format: biochemical; settings: read-out: Residual kinase activity, CDK5
T3 construct: purchased ProQinase GmbH (Freiburg, Germany)
Procedure: as §4, §5

T3 sequence (Q00535 whole entry): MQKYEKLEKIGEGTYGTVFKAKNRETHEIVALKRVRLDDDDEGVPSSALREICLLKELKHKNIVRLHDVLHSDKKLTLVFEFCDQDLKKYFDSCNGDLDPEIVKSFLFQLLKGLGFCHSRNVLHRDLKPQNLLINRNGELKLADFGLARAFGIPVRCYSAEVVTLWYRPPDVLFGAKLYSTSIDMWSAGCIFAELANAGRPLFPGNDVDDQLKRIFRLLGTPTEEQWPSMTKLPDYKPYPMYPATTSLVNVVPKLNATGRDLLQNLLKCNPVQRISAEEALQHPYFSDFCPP
T3 sequence (Q15078 whole entry partner): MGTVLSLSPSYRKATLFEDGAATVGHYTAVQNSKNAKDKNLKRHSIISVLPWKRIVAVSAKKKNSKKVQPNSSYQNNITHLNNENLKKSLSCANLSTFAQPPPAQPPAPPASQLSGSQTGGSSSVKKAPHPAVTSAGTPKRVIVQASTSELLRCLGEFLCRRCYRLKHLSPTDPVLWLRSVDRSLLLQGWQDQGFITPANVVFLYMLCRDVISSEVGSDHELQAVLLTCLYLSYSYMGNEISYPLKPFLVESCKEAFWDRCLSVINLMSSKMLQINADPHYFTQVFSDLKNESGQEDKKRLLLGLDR
T2 sequence (P50750 whole entry): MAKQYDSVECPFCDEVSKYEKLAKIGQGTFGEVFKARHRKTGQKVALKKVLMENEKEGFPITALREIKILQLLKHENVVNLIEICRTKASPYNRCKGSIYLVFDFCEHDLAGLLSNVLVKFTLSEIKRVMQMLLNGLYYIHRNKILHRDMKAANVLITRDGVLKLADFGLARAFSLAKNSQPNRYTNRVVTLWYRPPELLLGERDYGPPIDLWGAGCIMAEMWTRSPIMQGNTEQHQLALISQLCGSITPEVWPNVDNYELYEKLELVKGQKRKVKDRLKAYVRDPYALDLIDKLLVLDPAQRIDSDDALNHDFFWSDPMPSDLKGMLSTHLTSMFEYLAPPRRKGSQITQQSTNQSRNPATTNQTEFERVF
T2 sequence (O60563 whole entry partner): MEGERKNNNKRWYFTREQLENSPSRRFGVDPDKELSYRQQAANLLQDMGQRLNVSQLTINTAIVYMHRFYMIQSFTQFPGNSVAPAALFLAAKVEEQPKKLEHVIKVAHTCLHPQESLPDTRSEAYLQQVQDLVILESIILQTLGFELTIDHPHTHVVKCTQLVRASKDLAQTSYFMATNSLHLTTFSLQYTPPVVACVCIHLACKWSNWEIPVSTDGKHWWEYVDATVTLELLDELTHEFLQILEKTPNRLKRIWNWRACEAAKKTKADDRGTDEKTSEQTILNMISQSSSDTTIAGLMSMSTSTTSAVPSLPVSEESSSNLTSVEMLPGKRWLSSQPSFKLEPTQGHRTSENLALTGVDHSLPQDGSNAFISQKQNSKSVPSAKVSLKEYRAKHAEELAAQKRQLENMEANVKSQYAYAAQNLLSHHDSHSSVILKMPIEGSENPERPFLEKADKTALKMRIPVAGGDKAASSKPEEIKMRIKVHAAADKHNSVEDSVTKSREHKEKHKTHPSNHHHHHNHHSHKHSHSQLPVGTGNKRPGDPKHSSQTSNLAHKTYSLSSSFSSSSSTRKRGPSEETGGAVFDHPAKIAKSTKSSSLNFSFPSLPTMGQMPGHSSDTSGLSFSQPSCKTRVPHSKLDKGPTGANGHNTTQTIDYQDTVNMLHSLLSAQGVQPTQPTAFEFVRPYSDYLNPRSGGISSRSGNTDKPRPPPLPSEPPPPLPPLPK
T1 sequence (P50613 whole entry): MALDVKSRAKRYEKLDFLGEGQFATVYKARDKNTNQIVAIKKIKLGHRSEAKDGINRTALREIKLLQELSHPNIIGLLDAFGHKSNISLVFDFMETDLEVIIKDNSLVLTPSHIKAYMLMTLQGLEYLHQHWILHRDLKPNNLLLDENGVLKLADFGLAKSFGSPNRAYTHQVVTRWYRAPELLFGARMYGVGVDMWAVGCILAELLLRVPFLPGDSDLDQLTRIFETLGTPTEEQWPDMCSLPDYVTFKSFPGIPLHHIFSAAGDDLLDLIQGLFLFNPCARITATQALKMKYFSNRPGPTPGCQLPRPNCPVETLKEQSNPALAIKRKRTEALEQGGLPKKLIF
T1 sequence (P51946 whole entry partner): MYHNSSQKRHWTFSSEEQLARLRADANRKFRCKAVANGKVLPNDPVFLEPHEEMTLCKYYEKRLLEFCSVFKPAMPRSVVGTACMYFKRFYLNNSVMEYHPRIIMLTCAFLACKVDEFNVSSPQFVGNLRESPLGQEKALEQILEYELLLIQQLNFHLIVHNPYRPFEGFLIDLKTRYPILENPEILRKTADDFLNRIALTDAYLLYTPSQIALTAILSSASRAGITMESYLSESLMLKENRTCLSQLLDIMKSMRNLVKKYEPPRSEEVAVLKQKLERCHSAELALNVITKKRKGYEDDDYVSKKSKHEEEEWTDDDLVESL
T1 sequence (P51948 whole entry partner): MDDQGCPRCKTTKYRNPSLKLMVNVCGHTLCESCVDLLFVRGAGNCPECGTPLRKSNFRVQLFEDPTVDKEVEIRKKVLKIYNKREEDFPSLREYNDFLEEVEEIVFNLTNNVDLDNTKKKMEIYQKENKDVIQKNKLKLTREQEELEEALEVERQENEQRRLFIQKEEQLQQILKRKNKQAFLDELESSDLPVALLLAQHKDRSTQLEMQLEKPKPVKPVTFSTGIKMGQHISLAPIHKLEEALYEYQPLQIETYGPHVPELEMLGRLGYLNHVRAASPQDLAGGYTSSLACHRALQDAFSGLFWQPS

With `NC1CCC(Nc2nc(NCc3ccc(Br)nc3)c3ncn(C4CCCC4)c3n2)CC1` (centres unmarked) [BP110, N^2-(4-amino-cyclohexyl)-N^6-(6-bromo-pyridin-3-ylmethyl)-9-cyclopentyl-9H-purine-2,6-diamine] as the compound, how does the IC50 [1] read?
Its IC50 is over 1000 nM.

And the IC50 [2]?
The IC50 was 513 nM.

And the IC50 [3]?
Its IC50 is 515 nM.

What about the IC50 [4] of the same compound?
The IC50 was 334 nM.

And the IC50 [5]?
The IC50 was 400 nM.

And the IC50 [6]?
The IC50 was 488 nM.

What about the melting point of the same compound?
Its melting point is 114 to 116 °C.

For `CC(C)(O)CNc1nc(NCc2ccc(-c3ccco3)nc2)c2ncn(C3CCCC3)c2n1` [BP117, 1-{9-cyclopentyl-6-[(6-furan-2-yl-pyridin-3-ylmethyl)-amino]-9H-purine-2-ylamino}-2-methyl-propan-2-ol], which “Relative caspase-3/7 activity in PLC/PRF/5 cell line” value ([7]; compound concentration 160 nM) is on record?
Its value is 0.79.

And the “Relative caspase-3/7 activity in PLC/PRF/5 cell line” value ([7]; compound concentration 320 nM)?
The value was 1.17.

What about the “Relative caspase-3/7 activity in PLC/PRF/5 cell line” value ([7]; compound concentration 640 nM) of the same compound?
The value was 2.60.

What about the “Relative caspase-3/7 activity in PLC/PRF/5 cell line” value ([7]; compound concentration 1280 nM) of the same compound?
Its value is 2.99.

What about the “Relative caspase-3/7 activity in Hep3B cell line” value ([8]; 200 nM) of the same compound?
Its value is 0.77.

And the “Relative caspase-3/7 activity in Hep3B cell line” value ([8]; 400 nM)?
The value was 0.89.

And the “Relative caspase-3/7 activity in Hep3B cell line” value ([8]; 800 nM)?
The value was 1.06.

And the “Relative caspase-3/7 activity in Hep3B cell line” value ([8]; 1600 nM)?
The value was 2.00.

What about the “Concentration of maximum activation” value [9] of the same compound?
The value was 950 nM.

What about the remaining activity at 0.1 µM ([10]; 100 nM) of the same compound?
Its remaining activity at 0.1 µM is 76.3%.

And the remaining activity at 1 µM ([10]; 1000 nM)?
Its remaining activity at 1 µM is 68.3%.

What about the remaining activity at 0.1 µM ([11]; 100 nM) of the same compound?
Its remaining activity at 0.1 µM is 52.7%.

And the remaining activity at 1 µM ([11]; 1000 nM)?
The remaining activity at 1 µM was 23.2%.

And the remaining activity at 0.1 µM ([12]; 100 nM)?
Its remaining activity at 0.1 µM is 76.7%.

And the remaining activity at 1 µM ([12]; 1000 nM)?
The remaining activity at 1 µM was 39.6%.

And the melting point?
Its melting point is 128 to 129 °C.
